The subject of assay [1] is breast cancer cell line MX-1. Briefly: MX-1 cell line proliferation assay. Format: cell-based. The note with it: Homo sapiens, MX1, 72 h, MX-1 cells, 3-day proliferation assay, Cell Titer Glo; read-out: Cellular proliferation EC50. The essentials: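 Final compound concentrations spanned 0.0001 to 3 μM, added to 5000 cells/well plated the previous night in RPMI 1640 plus 10% FBS at 37 °C.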
On the technique in general: Cellular ATP, detected with luciferase, serves as a proxy for viable cell number.

A further assay has as its target T1, BRD4 (BDII_E352-M457) (Homo sapiens, UniProt O60885).
T1 construct: proliferation; Protocol; made in house
As to the kind of experiment: TR-FRET bromodomain binding assay, second bromodomain of BRD4. Conditions: His-tagged BD2, 30 nM Alexa647 probe; TR-FRET protocol A-E given per row. The essentials:
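His-tagged BRD4 BD2 ([…]) competed against an Alexa647-labelled BET-inhibitor probe in TR-FRET. Buffer was 20 mM sodium phosphate pH 6.0, 50 mM NaCl, 1 mM EDTA, 0.01% Triton X-100, 1 mM DTT, with method D DMSO series of 2.5 mM–800 nM (stock range). IC50 from 4-parameter fit, Ki from probe Kd and concentration.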
In general terms: In TR-FRET formats the signal depends on donor and acceptor labels being close together.

The next assay addresses T2, BRD4 (BDI_K57-E168) (Homo sapiens, UniProt O60885).
T2 construct: BD1: amino acids K57-E168; made in house
As to the kind of experiment: TR-FRET bromodomain binding assay, first bromodomain of BRD4. The note with it: His-tagged BD1, 100 nM Alexa647 probe; TR-FRET protocol A-E given per row. The essentials:
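Ki values come from IC50s (4-parameter logistic) corrected for probe Kd and concentration, normalised to no-compound and 1 μM unlabelled probe controls. Probe displacement by TR-FRET used 8 nM BD1 (K57-E168), 100 nM Alexa647 probe, 1 nM Eu-anti-His, 20 mM phosphate pH 6.0, 2% DMSO, 1 h, room temperature.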

Structures are written as SMILES.

A word on the Ki: it is a dissociation constant, usually derived from enzyme kinetics or from competition with a known ligand. A higher Ki goes with weaker binding.

With `Cn1cc(-c2cc(CS(=O)(=O)Nc3nccs3)ccc2Oc2ccc(F)cc2F)c2cc[nH]c(=O)c21` [Example 104, 1-[4-(2,4-difluorophenoxy)-3-(1-methyl-7-oxo-6,7-dihydro-1H-pyrrolo[2,3-c]pyridin-3-yl)phenyl]-N-(1,3-thiazol-2-yl)methanesulfonamide], the EC50 in assay [1] was more than 3000 nM. Also, the results for the Ki at BRD4 (BDII_E352-M457) and on BRD4 (BDI_K57-E168) were 107 nM and 72 nM, respectively.
As to `Cn1cc(-c2cc(CN3CCNCC3)ccc2Oc2ccc(F)cc2F)c2cc[nH]c(=O)c21` [Example 105, 3-[2-(2,4-difluorophenoxy)-5-(piperazin-1-ylmethyl)phenyl]-1-methyl-1,6-dihydro-7H-pyrrolo[2,3-c]pyridin-7-one], the EC50 in assay [1] is 806 nM. Further, the Ki on BRD4 (BDII_E352-M457) is 329 nM; at BRD4 (BDI_K57-E168), 528 nM.
For `CCS(=O)(=O)NCc1ccc(Oc2ccc(F)cc2F)c(-c2cn(C)c3c(=O)[nH]ccc23)c1` [Example 106, N-[4-(2,4-difluorophenoxy)-3-(1-methyl-7-oxo-6,7-dihydro-1H-pyrrolo[2,3-c]pyridin-3-yl)benzyl]ethanesulfonamide], in that order: 338 nM, 67 nM and 31 nM.
On to `Cn1cc(-c2cc(S(C)(=O)=O)ccc2Oc2ccc(F)cc2F)c2c(Cl)c[nH]c(=O)c21` [Example 108, 4-chloro-3-[2-(2,4-difluorophenoxy)-5-(methylsulfonyl)phenyl]-1-methyl-1,6-dihydro-7H-pyrrolo[2,3-c]pyridin-7-one], for which, in assay [1], the EC50 was determined as 460 nM. In addition, the figures for the inhibitory constant (Ki) at BRD4 (BDII_E352-M457) and on BRD4 (BDI_K57-E168) were 181 nM and 93 nM, respectively.
In the same order, the values of `Cn1cc(-c2cc(S(C)(=O)=O)ccc2OCCC2CC2)c2c(Cl)c[nH]c(=O)c21` [Example 109, 4-chloro-3-[2-(2-cyclopropylethoxy)-5-(methylsulfonyl)phenyl]-1-methyl-1,6-dihydro-7H-pyrrolo[2,3-c]pyridin-7-one] are 268 nM, 67 nM and 57 nM.
On to `Cn1cc(-c2cc(CS(C)(=O)=O)ccc2NCC2CC2)c2cc[nH]c(=O)c21` [Example 110, 3-{2-[(cyclopropylmethyl)amino]-5-[(methylsulfonyl)methyl]phenyl}-1-methyl-1,6-dihydro-7H-pyrrolo[2,3-c]pyridin-7-one], for which the EC50 in assay [1] amounted to 136 nM. For the same compound, the Ki at BRD4 (BDII_E352-M457) is 215 nM; on BRD4 (BDI_K57-E168), 61 nM.
Take `Cn1cc(-c2cc(CN3CCC(N)CC3)ccc2Oc2ccc(F)cc2F)c2cc[nH]c(=O)c21` [Example 111, 3-{5-[(4-aminopiperidin-1-yl)methyl]-2-(2,4-difluorophenoxy)phenyl}-1-methyl-1,6-dihydro-7H-pyrrolo[2,3-c]pyridin-7-one]: in assay [1], the EC50 came out at 713 nM. Besides, the Ki amounted to 337 nM on BRD4 (BDII_E352-M457) and 908 nM at BRD4 (BDI_K57-E168).
For `CN(C)C1CCN(Cc2ccc(Oc3ccc(F)cc3F)c(-c3cn(C)c4c(=O)[nH]ccc34)c2)CC1` [Example 113, 3-[2-(2,4-difluorophenoxy)-5-{[4-(dimethylamino)piperidin-1-yl]methyl}phenyl]-1-methyl-1,6-dihydro-7H-pyrrolo[2,3-c]pyridin-7-one], in that order: 1630 nM, 506 nM and 583 nM.
Regarding `Cn1cc(-c2cc(CNCCC(C)(C)C)ccc2Oc2ccc(F)cc2F)c2cc[nH]c(=O)c21` [Example 114, 3-[2-(2,4-difluorophenoxy)-5-{[(3,3-dimethylbutyl)amino]methyl}phenyl]-1-methyl-1,6-dihydro-7H-pyrrolo[2,3-c]pyridin-7-one], in assay [1], the EC50 is more than 3000 nM. Further, the Ki was 1200 nM at BRD4 (BDII_E352-M457) and 1410 nM at BRD4 (BDI_K57-E168).
For `COC1CCN(Cc2ccc(Oc3ccc(F)cc3F)c(-c3cn(C)c4c(=O)[nH]ccc34)c2)CC1` [Example 115, 3-{2-(2,4-difluorophenoxy)-5-[(4-methoxypiperidin-1-yl)methyl]phenyl}-1-methyl-1,6-dihydro-7H-pyrrolo[2,3-c]pyridin-7-one], in that order: 1420 nM, 1330 nM and 1350 nM.

The values above are taken from patent US9321764B2, “Dihydro-pyrrolopyridinone inhibitors” (AbbVie Inc., priority 2013, dated 2016).
